Measured values reported in US20230124720A1, “APPLICATION OF ACRIDINEDIONE COMPOUND IN PREPARATION OF ANTI-DIABETIC DRUGS” (THE FOURTH MILITARY MEDICAL UNIVERSITY, priority 2020, published 2023).

How the values were obtained:
[1] = target: T1, HEK-293T cells stably overexpressing GPR40 (Homo sapiens, UniProt O14842); assay: GPR40 agonistic activity assay (Fluo-4 AM fluorescence, Flexstation); assay type: cell-based
T1 construct: expressed in transfected cells; host or cells: HEK-293T
Protocol: There were triplicate wells for each group, and a Flexstation instrument was used for detecting and reading fluorescence values. Each compound dilution concentration was: 200 μmol/L, 100 μmol/L, 50 μmol/L, 10 μmol/L, 5 μmol/L.
EC50 value for each compound was calculated from the measured fluorescence value according to the following formula:
Relative agonism ratio=(fluorescence value of test compound-fluorescence value of negative control)/(fluorescence value of agonist positive control-fluorescence value of negative control)*100%;

[2] = tested on: GPR40; assay: Insulin secretion in MIN6 cells with GPR40 inhibitor GW1100; assay type: cell-based, mouse; conditions: 10 μmol/L GW1100 + 10 μmol/L ADD-16, 24 h
Protocol: MIN6 cells were seeded in 24-well plates and cultured as described in step 2.1 to a cell confluency of more than 80% and administrated in the following groups, with 12 replicates per group: (1) normal control group (Con): cultured with blank 1640 medium; (2) GW9508 group: 1 μmol/L GW9508 intervention for 24 h; (3) GW1100 group: 10 μmol/L GW1100 intervention for 24 h; (4) ADD-16 group (ADD): 10 μmol/L ADD-16 intervention for 24 h; (5) GW1100+GW9508 group: 10 μmol/L GW1100+1 μmol/L GW9508 intervention for 24 h; (6) GW1100+ADD-16 group: 10 μmol/L GW1100+10 μmol/LADD-16 intervention for 24 h. After the group administration, the medium was aspirated and washed 2 times with a KRB buffer without sugar, followed by the addition of the KRB buffer without sugar. After incubation at 37° C. for 30 min, the buffer was aspirated and each group was divided into two, i.e., 6 replicates for each group, and KRB buffers containing 2.8 mmol/L and 16.7 mmol/L glucose was added respectively. After incubation at 37° C. for 1 h, all the medium in the wells was aspirated and centrifuged at 2000 rmp/min for 20 min, and the supernatant was collected and stored at −20° C. The insulin content was measured for each group.

[3] = tested on: STZ-induced T2DM rats; assay: Oral glucose tolerance test (OGTT) in T2DM rats; assay type: in vivo, rat; conditions: artificially induced T2DM rats
Protocol: 150 male SD rats, housed in cages in a clean constant temperature (23±2° C.) and humidity (55±10%) animal house, were manually adjusted on a daily 12 h/12 h diurnal light cycle with free access to water. After 3 days of adaptive feeding, 150 rats were randomly divided into normal and model groups. The normal (Con, n=15) group of rats remained on raw chow and the model group (n=135) of rats were given high fat high sugar chow. All rats were fed twice daily and the amount of feed was adjusted as needed to ensure adequate feed. After 8 weeks of group feeding, the model group rats were given an intraperitoneal injection of 25 mg/kg STZ solution with a 12 h fast prior to injection. After injection, feeding was continued as in the original method, blood was taken from the tail vein at 72 h for blood glucose measurement, and rats with fasting blood glucose levels ≥11.1 mmol/L on different days were screened for successful artificial induction of T2DM and administered in groups for the next experiment. 135 rats with successful modeling were randomly divided into 9 groups: […] […] Relevant indicators of lipid metabolism were measured after the end of the study. At the final week of the Oral Glucose Tolerance Test (OGTT) test, each group of rats was fasted from water 16 h after gavage administration and the fasting blood glucose value (as 0 min) was measured for each rat. […]

[4] = tested on: MIN6 cells; assay: Western Blot / immunofluorescence of insulin signaling related molecules in insulin-resistant MIN6 cells; assay type: cell-based, mouse
Protocol: MIN6 cells were seeded in culture dishes at the appropriate density and cultured as described in step 2.1 to a confluency of about 80%. Cells were divided into the following 5 groups: (1) normal control group (Con): cultured with blank 1640 medium; (2) insulin resistance model panel (IR): treatment with 0.125 mmol/L PA for 24 h to induce establishment of a MIN6 cell insulin resistance model; (3) 3 μmol/L ADD-16 administration group (ADD I): 3 μmol/L ADD-16 intervention was given for 24 h after successful establishment of the insulin resistance model; (4) 10 μmol/L ADD-16 administration group (ADD II): 10 μmol/L ADD-16 intervention was given for 24 h after successful establishment of the insulin resistance model; (5) TAK875 control group (TAK875): 10 μmol/L TAK875 was administered as a positive control drug intervention for 24 h after successful establishment of the insulin resistance model. At the end of the group administration, groups of cells were harvested for WB or IF experiments.

[5] = tested on: MIN6 cells; assay: Cytotoxicity / growth of MIN6 cells (FIG. 1A); assay type: cell-based, mouse; conditions: 100 μmol/L

T1 sequence (O14842 whole entry): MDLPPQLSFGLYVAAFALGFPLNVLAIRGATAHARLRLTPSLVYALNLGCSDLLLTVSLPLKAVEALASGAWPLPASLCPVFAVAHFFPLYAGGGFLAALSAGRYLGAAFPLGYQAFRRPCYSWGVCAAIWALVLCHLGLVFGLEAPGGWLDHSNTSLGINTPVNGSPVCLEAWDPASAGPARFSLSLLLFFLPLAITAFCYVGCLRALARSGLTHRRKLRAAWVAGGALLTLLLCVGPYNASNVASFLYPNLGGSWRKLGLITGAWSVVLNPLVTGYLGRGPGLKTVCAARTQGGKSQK

CC1(C)CC(=O)C2=C(C1)NC1=C(C(=O)CC(C)(C)C1)C2c1ccc(OCc2ccc(C(=O)O)cc2)c(Br)c1 [ADD-16]
EC50 ([1]; GPR40 agonism, n = 6): 12.3 µM
agonistic activity (in words) ([1]; among the candidate compounds screened): highest agonistic activity
insulin secretion in GW1100-treated MIN6 cells (in words) [2]: increase insulin secretion in MIN6 cells treated with the GPR40 inhibitor GW1100
glucose tolerance (OGTT, in words) [3]: increase glucose tolerance
GPR40 expression, immunofluorescence staining (in words) ([4]; MIN6 cells): upregulate GPR40 expression
expression of insulin signaling-related molecules, Western Blot (in words) ([4]; insulin-resistant MIN6 cells, 24 h, P<0.001): upregulate GPR40, PGC-1α, P-P38, P-EP300, PPARγ, P-AKT, PI3K, IRS1 and GLUT4 expression
effect on MIN6 cell growth (in words) [5]: inhibitory effect on MIN6 cell growth
